pIC50: −log10 of the molar value.
What follows are compounds tested against HCV NS5B RNA-dependent RNA polymerase (Hepatitis C virus genotype 1b, UniProt P26663) (assay: In vitro RNA-dependent RNA polymerase assay (Assay 1), polyA/oligo dT, TCA precipitation). Details: not given.
Assay type: biochemical
Procedure: Purification of Recombinant NS5B Using Fast Protein Liquid Chromatography (FPLC):
Soluble NS5B protein in the S3 fraction was diluted to lower the NaCl concentration to 300 mM, then it incubated batchwise with DEAE sepharose beads (Amersham-Pharmacia) for 2 hrs at 4° C., as described by Behrens et al. (1996). Unbound material was cleared by centrifugation for 15 min at 4° C., at 25,000 rpm using a SW41 rotor (Beckman). The supernatant was further diluted to lower the NaCl concentration to 200 mM and subsequently loaded, with a flow rate of 1 ml/min, on a 5 ml HiTrap® heparin column (Amersham-Pharmacia) connected to an FPLC® system (Amersham-Pharmacia). Bound proteins were eluted in 1 ml fractions, using a continuous NaCl gradient of 0.2 to 1 M, over a 25 ml volume. NS5B-containing fractions were identified by sodium dodecyl sulfate polyacrylamide gel electrophoresis (SDS-PAGE), followed by western blotting using the anti-NS5B antiserum at a dilution of 1:2000. Positive fractions were pooled and the elution buffer was exchanged against a 50 mM NaPO4 pH 7.0, 20% glycerol, 0.5% triton X-100 and 10 mM DTT, using a PD-10 column (Amersham-Pharmacia). The sample was then loaded onto a 1 ml HiTrap® SP column (Amersham-Pharmacia), with a flow rate of 0.1 ml/min. Bound proteins were eluted using a continuous 0 to 1 M NaCl gradient over a 15 ml volume. Eluted fractions were analyzed by SDS-PAGE and western blotting. Alternatively, proteins were visualized, following SDS-PAGE, by silver staining using the Silver Stain Plus kit (BioRad) as described by the manufacturer. […]
In vitro RNA-dependent RNA Polymerase Assays Used to Evaluate Biaryl Analogues (Assay 1):
RdRp assays were conducted using the homopolymeric template/primer polyA/oligo dT. All RdRp reactions were performed in a total volume of 50 μl, and in a basic buffer consisting of 20 mM Tris-HCl pH 7.5, 1 mM DTT, 50 mM NaCl, 5 mM MgCl2, 0.5 μCi […] (3000 Ci/mmol), 15 μM cold UTP and 20 U RNasin (Promega). Standard HCV RdRp reactions contained 200 ng of purified NS5B protein. PolyA RNAs (Amersham-Pharmacia) was resuspended at 400 ng/μl. The primer oligodT15 (Canadian life technologies) was diluted to a concentration of […] (7.6 ng/μl). Templates and primers were mixed volume to volume, denatured at 95° C. for 5 min and annealed at 37° C. for 10 min. Following a two hour incubation at 22° C., reactions were stopped by the addition of 100 μg of sonicated salmon sperm DNA (Life Technologies) and 1 ml of 10% trichloroacetic acid-0.5% tetrasodium pyrophosphate (TCA-PPi). Nucleic acids were precipitated at 4° C. for 30 min after which samples were filtered on GF/C glass microfiber filters (Millipore). Membranes were subsequently washed with 25 ml of a 1% TCA-0.1% PPi solution, then air dried. Incorporated radioactivity was quantified using a liquid scintillation counter (1450-Microbeta, Wallac). Results are shown in Table 1, in the column indicated as Assay 1.

Chain of HCV NS5B RNA-dependent RNA polymerase (P26663 2420-3010 limits assumed): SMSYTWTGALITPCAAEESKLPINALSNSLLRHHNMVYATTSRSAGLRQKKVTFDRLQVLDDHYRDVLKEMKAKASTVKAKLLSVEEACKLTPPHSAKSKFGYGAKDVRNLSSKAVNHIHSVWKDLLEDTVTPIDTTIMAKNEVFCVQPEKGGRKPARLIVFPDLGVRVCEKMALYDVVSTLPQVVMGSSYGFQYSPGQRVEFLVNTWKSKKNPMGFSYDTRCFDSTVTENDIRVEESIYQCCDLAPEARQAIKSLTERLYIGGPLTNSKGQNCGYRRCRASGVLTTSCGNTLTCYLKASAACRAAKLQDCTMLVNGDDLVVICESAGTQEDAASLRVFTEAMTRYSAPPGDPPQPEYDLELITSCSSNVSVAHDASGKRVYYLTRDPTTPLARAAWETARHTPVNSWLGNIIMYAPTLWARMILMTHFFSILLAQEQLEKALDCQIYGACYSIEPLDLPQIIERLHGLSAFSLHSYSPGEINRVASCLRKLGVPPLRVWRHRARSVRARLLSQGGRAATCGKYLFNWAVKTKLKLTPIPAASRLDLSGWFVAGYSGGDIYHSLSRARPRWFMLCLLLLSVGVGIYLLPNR

Row | SMILES | pIC50
1 | O=C(O)[C@H](Cc1ccccc1)N(Cc1cccc(Br)c1)C(=O)c1ccc(Cl)cc1 [compound #15, (2s)-2-[(3-Bromo-benzyl)-(4-chloro-benzoyl)-amino]-3-phenyl-propionic acid] | 4.70 to 5.30
2 | O=C(O)[C@H](Cc1ccccc1)N(Cc1cccc(Br)c1)C(=O)c1ccc(Cl)cc1Br [compound #36, (2s)-2-[(3-Bromo-benzyl)-(2-bromo-4-chloro-benzoyl)-amino]-3-phenyl-propionic acid] | > 5.30

Same assay, conditions: polyA/oligo dT template/primer, 200 ng NS5B, 2 h at 22° C.; read-out: RNA pol Assay 1 IC50 (μm)

Row | pIC50 | SMILES
3 | 4.70 to 5.30 | COc1cc(C)c(S(=O)(=O)N(Cc2ccc(Br)cc2)[C@@H](Cc2ccccc2)C(=O)O)c(C)c1C [compound #14, (2s)-2-[(4-Bromo-benzyl)-(4-methoxy-2,3,6-trimethyl-benzenesulfonyl)-amino]-3-phenyl-propionic acid]
4 | 4.70 to 5.30 | COc1cc(C)c(S(=O)(=O)N(Cc2cccc(Br)c2)[C@@H](Cc2ccccc2)C(=O)O)c(C)c1C [compound #17, (2s)-2-[(3-Bromo-benzyl)-(4-methoxy-2,3,6-trimethyl-benzenesulfonyl)-amino]-3-phenyl-propionic acid]
5 | < 4.70 | COC(=O)c1ccc(-c2ccc(CN([C@@H](Cc3ccccc3)C(=O)O)S(=O)(=O)c3c(C)cc(OC)c(C)c3C)cc2)o1 [compound #18, (2s)-5-(4-{[(1s-1-Carboxy-2-phenyl-ethyl)-(4-methoxy-2,3,6-trimethyl-benzenesulfonyl)-amino]-methyl}-phenyl)-furan-2-carboxylic acid methyl ester]
6 | < 4.70 | O=C(O)[C@H](Cc1ccccc1)N(Cc1cccc(Br)c1)C(=O)c1ccc(Cl)c(Cl)c1 [compound #19, (2s)-2-[(3-Bromo-benzyl)-(3,4-dichloro-benzoyl)-amino]-3-phenyl-propionic acid]
7 | < 4.70 | O=C(O)[C@H](Cc1ccccc1)N(Cc1cccc(Br)c1)S(=O)(=O)c1ccc(Cl)cc1Cl [compound #20, (2s)-2-[(3-Bromo-benzyl)-(2,4-dichloro-benzenesulfonyl)-amino]-3-phenyl-propionic acid]
8 | > 5.30 | Cc1ccc(C(=O)N(Cc2cccc(Br)c2)[C@@H](Cc2ccccc2)C(=O)O)c(C)c1 [compound #28, (2s)-2-[(3-Bromo-benzyl)-(2,4-dimethyl-benzoyl)-amino]-3-phenyl-propionic acid]
9 | > 5.30 | Cc1ccc(C(=O)N(Cc2cccc(-c3cc4ccccc4o3)c2)[C@@H](Cc2ccccc2)C(=O)O)c(C)c1 [compound #31, (2s)-2-[(3-Benzofuran-2-yl-benzyl)-(2,4-dimethyl-benzoyl)-amino]-3-phenyl-propionic acid]
10 | > 5.30 | Cc1cc(Cl)ccc1C(=O)N(Cc1cccc(Br)c1)[C@@H](Cc1ccccc1)C(=O)O [compound #34, (2s)-2-[(3-Bromo-benzyl)-(4-chloro-2-methyl-benzoyl)-amino]-3-phenyl-propionic acid]
11 | > 5.30 | O=C(O)[C@H](Cc1ccccc1)N(Cc1cccc(-c2cc3ccccc3o2)c1)C(=O)Cc1ccc(Cl)cc1Cl [compound #37, (2s)-2-{(3-Benzofuran-2-yl-benzyl)-[(2,4-dichloro-phenyl)-acetyl]-amino}-3-phenyl-propionic acid]
12 | > 5.30 | O=C(O)[C@H](Cc1ccccc1)N(Cc1ccc(-c2cc3ccccc3o2)cc1)c1ccc(Cl)cc1Cl [compound #38, (2s)-2-[(4-Benzofuran-2-yl-benzyl)-(2,4-dichloro-phenyl)-amino]-3-phenyl-propionic acid]
13 | > 5.30 | O=C(O)[C@H](Cc1ccccc1)N(Cc1ccc2ccccc2c1)C(=O)c1ccc(Cl)cc1Cl [compound #39, (2s)-2-[(2,4-Dichloro-benzoyl)-naphthalen-2-ylmethyl-amino]-3-phenyl-propionic acid]
14 | > 5.30 | O=C1c2ccccc2C(=O)c2cc(CN(C(=O)c3ccc(Cl)cc3Cl)[C@@H](Cc3ccccc3)C(=O)O)ccc21 [compound #40, (2s)-2-[(2,4-Dichloro-benzoyl)-(9,10-dioxo-9,10-dihydro-anthracen-2-ylmethyl)-amino]-3-phenyl-propionic acid]
15 | > 5.30 | O=C(c1cccc(Cl)c1)c1cccc(CN(C(=O)c2ccc(Cl)cc2Cl)[C@@H](Cc2ccccc2)C(=O)O)c1 [compound #41, (2s)-2-[[3-(3-Chloro-benzoyl)-benzyl]-(2,4-dichloro-benzoyl)-amino]-3-phenyl-propionic acid]
16 | > 5.30 | O=C(c1cccc(CN(C(=O)c2ccc(Cl)cc2Cl)[C@@H](Cc2ccccc2)C(=O)O)c1)c1ccc(F)cc1F [compound #42, (2s)-2-{(2,4-Dichloro-benzoyl)-[3-(2,4-difluoro-benzoyl)-benzyl]-amino}-3-phenyl-propionic acid]
17 | > 5.30 | O=C(O)[C@H](Cc1ccccc1)N(Cc1cccc(-c2nc3ccccc3o2)c1)C(=O)c1ccc(Cl)cc1Cl [compound #45, (2s)-2-[(3-Benzooxazol-2-yl-benzyl)-(2,4-dichloro-benzoyl)-amino]-3-phenyl-propionic acid]

Continued, compound first:

Row | SMILES | pIC50
18 | COc1cc(C)c(S(=O)(=O)N(Cc2ccc(I)cc2)[C@@H](Cc2ccccc2)C(=O)O)c(C)c1C [compound #16, (2s)-2-[(4-Iodo-benzyl)-(4-methoxy-2,3,6-trimethyl-benzenesulfonyl)-amino]-3-phenyl-propionic acid] | 4.70 to 5.30
19 | O=C(O)[C@H](Cc1cn(Cc2ccccc2)cn1)N(Cc1cccc(Br)c1)C(=O)c1ccc(Cl)cc1Cl [compound #21, (2s)-3-(1-Benzyl-1h-imidazol-4-yl)-2-[(3-bromo-benzyl)-(2,4-dichloro-benzoyl)-amino]-propionic acid] | 4.70 to 5.30
20 | O=C(O)[C@H](Cc1ccccc1)N(Cc1cccc(Br)c1)C(=O)Cc1ccc(Cl)cc1Cl [compound #22, (2s)-2-{(3-Bromo-benzyl)-[(2,4-dichloro-phenyl)-acetyl]-amino}-3-phenyl-propionic acid] | 4.70 to 5.30
21 | COC(=O)c1ccc(-c2ccc(CN([C@@H](Cc3ccccc3)C(=O)O)S(=O)(=O)c3c(C)cc(OC)c(C)c3C)cc2)s1 [compound #23, (2s)-5-(4-{[(1s-1-Carboxy-2-phenyl-ethyl)-(4-methoxy-2,3,6-trimethyl-benzenesulfonyl)-amino]-methyl}-phenyl)-thiophene-2-carboxylic acid methyl ester] | < 4.70
22 | COc1cc(C)c(S(=O)(=O)N(Cc2ccccc2Br)[C@@H](Cc2ccccc2)C(=O)O)c(C)c1C [compound #24, (2s)-2-[(2-Bromo-benzyl)-(4-methoxy-2,3,6-trimethyl-benzenesulfonyl)-amino]-3-phenyl-propionic acid] | 4.70 to 5.30
23 | COc1cc(C)c(S(=O)(=O)N(Cc2ccc(-c3cc4ccccc4o3)cc2)[C@@H](Cc2ccc(O)cc2)C(=O)O)c(C)c1C [compound #32, (2s)-2-[(4-Benzofuran-2-yl-benzyl)-(4-methoxy-2,3,6-trimethyl-benzenesulfonyl)-amino]-3-(4-hydroxy-phenyl)-propionic acid] | > 5.30
24 | O=C(O)[C@H](Cc1ccc(O)cc1)N(Cc1ccc(-c2cc3ccccc3o2)cc1)C(=O)c1ccc(Cl)cc1Cl [compound #33, (2s)-2-[(4-Benzofuran-2-yl-benzyl)-(2,4-dichloro-benzoyl)-amino]-3-(4-hydroxy-phenyl)-propionic acid] | > 5.30
25 | O=C(O)[C@H](Cc1ccccc1)N(Cc1cccc(Br)c1)C(=O)c1ccc(Cl)cc1I [compound #35, (2s)-2-[(3-Bromo-benzyl)-(4-chloro-2-iodo-benzoyl)-amino]-3-phenyl-propionic acid] | > 5.30
26 | Cc1onc(-c2ccccc2Cl)c1C(=O)c1cccc(CN(C(=O)c2ccc(Cl)cc2Cl)[C@@H](Cc2ccccc2)C(=O)O)c1 [compound #43, (2s)-2-[{3-[3-(2-Chloro-phenyl)-5-methyl-isoxazole-4-carbonyl]-benzyl}-(2,4-dichloro-benzoyl)-amino]-3-phenyl-propionic acid] | > 5.30
27 | O=C(c1cccc(CN(C(=O)c2ccc(Cl)cc2Cl)[C@@H](Cc2ccccc2)C(=O)O)c1)c1ccc(Cl)cc1Cl [compound #44, (2s)-2-{(2,4-Dichloro-benzoyl)-[3-(2,4-dichloro-benzoyl)-benzyl]-amino}-3-phenyl-propionic acid] | > 5.30
